Entries after “also recorded” stand apart in the source; their conditions may differ. Where a name gives a salt, the structure may show the parent alone.
How the values were obtained:
[1] = system: androgen-independent prostate cancer; assay: Treatment of male patients with androgen-independent prostate cancer (Example 1); assay type: in vivo, human
Method: Three male patients were selected for treatment on the basis of established diagnosis with prostate cancer. All three patients had failed standard androgen withdrawal therapy. Average prostate-specific antigen (“PSA”) levels for each patient at the beginning of treatment was about 20-30 ng/ml. Hormone ablative therapy, in some cases aggressively administered as long as 36 months, had failed, manifested by a continued rise in PSA levels in each patient. […] Each patient continued to receive luteinizing hormone-releasing hormone (“LHRH”)-agonist therapy, despite tumor growth in its presence. This is considered standard therapy, as tumor growth is likely to be more aggressive if testosterone levels were allowed to return to normal in these patients.

MSKPC9 tumor xenografts = assay: Growth of androgen independent MSKPC9 tumor xenografts; assay type: in vivo, nude athymic BALB/c male mice; settings: 40 mg/kg 5x/wk p.o., orchiectomized mice
Method: Xenograft studies were performed as described in D. B. Agus et al., “Response of prostate cancer to anti-Her-2/neu antibody in androgen-dependent and -independent human xenograft models,” Cancer Res. 59(19):4761-4764 (1999). Orchiectomized seven- to eight-week-old nude athymic BALB/c male mice were obtained from the National Cancer Institute and maintained in pathogen-free conditions. Mice were inoculated subcutaneously (“s.c.”) with minced tumor tissue together with […] reconstituted basement membrane (available from BD Biosciences Discovery Labware; Bedford, Mass.) from the established androgen independent (“AI”) MSKPC9 xenograft cell lines; cell lines are described in M. Nagabhushan et al., “CWR22: the first human prostate cancer xenograft with strongly androgen-dependent and relapsed strains both in vivo and in soft agar,” Cancer Res. 56(13):3042-3046 (1996), and D. B. Agus et al., “Prostate cancer cell cycle regulators: response to androgen withdrawal and development of androgen independence,” J. Natl. Cancer Inst. 91(21):1869-76 (1999).
Tumors were measured twice weekly with vernier calipers, and tumor volumes were calculated by the formula (π/6)×(larger diameter)×(smaller diameter)^2, described in M. F. Press et al., “HER-2/neu gene amplification characterized by fluorescence in situ hybridization: poor prognosis in node-negative breast carcinomas,” J. Clin Oncol. […]

PSA = PSA levels in animals with MSKPC9 xenografts (enzymatic immunoassay); assay type: in vivo, nude athymic BALB/c male mice
Method: Levels of PSA in the blood of implanted animals were determined using an enzymatic immunoassay kit (obtained from American Qualex; San Clemente, Calif.). Blood samples were obtained prior to treatment by a small incision in the dorsal tail vein to collect 50 μl of blood using a serum-separator tube, or via a cardiac draw at sacrifice.

ER-β mRNA = assay: Real-time RT-PCR of MSKPC9 xenograft tumors, ER-β mRNA; assay type: in vivo; settings: MSKPC9 tumor xenografts, treated vs control
Method: Total RNA was extracted from prostate tumors using TRIZOL reagent (available from Invitrogen Corporation; Carlsbad, Calif.). DNase I (obtained from Ambion, Inc.; Austin, Tex.) was used to rid the samples of any extraneous DNA that might interfere with the reaction. The yield was quantified spectrophotometrically. Total RNA was reverse-transcribed into cDNA and PCR was performed in the same reaction by using TAQMAN One-Step RT-PCR Master Mix Reagents Kit (obtained from Applied Biosystems; Foster City, Calif.; hereinafter “Applied Biosystems”). Probes were labeled with 6-FAM on the 5′ end and TAMRA on the 3′ end. β-actin was used as the endogenous control and normalizer. The primer pairs used are depicted in Table 1, as follows:
The PCR cycling conditions were performed for all of the samples as follows: 30 minutes at 48° C. for RT step; 10 minutes at 95° C. for […] GOLD Activation (available from Applied Biosystems); and 40 cycles for the melting (95° C., 15 seconds), and annealing/elongation (60° C. for one minute) steps. PCR reactions for each template were done in triplicate using 1 μg of total mRNA per sample. Each gene-specific primer pair was tested on standard 384-well plates. […]
The comparative Ct method (PE Applied Biosystems) was used to determine relative quantification of gene expression for each gene compared with the β-actin control. […]

[2] = system: androgen-independent prostate cancer (AIPC); assay: Clinical study of raloxifene in androgen-independent prostate cancer: response and survival; assay type: in vivo, human
Source text: Between August 2001 and July 2002, twenty-one patients were enrolled into the study at the Prostate Cancer Center of Cedars-Sinai Medical Center in Los Angeles, Calif. Patients who were eligible for the study were men who had histologically confirmed adenocarcinoma of the prostate and confirmed disease progression after hormonal therapy. Patients were required to have progression of disease as evidenced by CT scan or rising PSA on two successive measurements after discontinuation of anti-androgen therapy. In addition, patients receiving androgen receptor-blocking agents as their last form of therapy had to have confirmed disease progression after drug withdrawal. Nonsurgically castrated patients continued to receive LHRH agonist while on study to maintain castrate levels of serum testosterone.
Both patients with measurable disease by either bone scan or CT scan, and evaluable disease evidenced by rising PSA were included in the study. Patients whose only evidence of disease progression was rising PSA had to have an increasing PSA on any two determinations drawn at two least weeks apart, with a greater than 20% increase from the baseline value. Other eligibility criteria included: Karnofsky performance status >70%, life expectancy >12 weeks (with at least four weeks since major surgery or radiation therapy), and at least 12 weeks for treatment with strontium-89, rhenium, or samarium-153. […] Patients with a history of uncontrolled or severe cardiovascular disease (e.g., inadequately uncontrolled hypertension, congestive heart failure, angina, or myocardial infarction within the previous year), a history of thromboembolism, a history of biliary colic or untreated cholethiasis were excluded. Patients with brain metastasis, clinical signs of brain involvement or leptomeningeal disease, dementia, psychoses, or other significant impairment of mental status were excluded. Patients with a history of another malignancy during the past five years (other than non-melanomatous skin cancer or in situ stage T1a bladder cancer), patients with active infections requiring antibiotics, or patients on concurrent commercial or investigational antineoplastic therapies were excluded. No concomitant use of prostata or saw palmetto was permitted.
(§1) Response to therapy was assessed after the first two months of therapy and then monthly thereafter. Toxicity was assessed monthly at each study visit. […] A partial response (“PR”) required a decrease by >50% of the sum of the products of the perpendicular diameters for all measurable lesions lasting at least one month, no appearance of new lesions, and a reduction in serum PSA by >50% on two consecutive occasions at least one month apart. For patients being evaluated by bone metastases, a PR required a reduction in serum PSA by >50% on two consecutive occasions at least one month apart an improvement in bone scan (reduction in intensity or size of one or more metastatic foci and no new foci of radionuclide uptake unless due to […] healing documented on plain radiograph, CT scan, or MRI scan). During this time there should have been no cancer-associated deterioration in weight, performance status, or symptoms. Progressive disease (“PD”) was defined by any of the following: (1) increase >25% in the sum of the products of the perpendicular diameters of bidimensionally measurable lesions in the sum of the transverse diameters of unidimensionally measurable lesions, (2) the appearance of new lesions, and (3) by the increase in serum PSA >50% over baseline as documented on two successive measurements >28 days apart. […] For PD to be scored by PSA criteria alone, a confirmatory PSA determination was required and obtained two weeks after the value representing a >50% increase. Patients who had improvement in one objective parameter while meeting the criteria for PD by another parameter were scored as having PD.
Treatment was administered with monthly lab draws and follow-up visits with the physician. […]

[3] = Clinical study of raloxifene: toxicity (NCI Common Toxicity Criteria, v2.0); assay type: in vivo, human
Method: as §1
Treatment was administered with monthly lab draws and follow-up visits with the physician. […] Patients received 1 mg oral COUMADIN daily (or 0.5 mg oral COUMADIN daily if patients were already taking aspirin).
The reported urinary tract infection (“UTI”) (1) and hematuria (1) were thought to be related to the patient's underlying disease. Two grade 3 events were reported: a grade 3 arthralgia/myalgia thought to be related to the patient's recent injury, and a grade 3 elevated creatinine that was attributed to the patient's disease progression.

[4] = EVISTA package insert; cited from earlier work
[5] = system: androgen-independent prostate cancer; settings: several previous clinical trials; cited from earlier work
[6] = system: human prostate tumor cells (CWR22R); assay: Inhibition of tumor growth in androgen-independent xenograft model (CWR22R); assay type: in vivo, nude mice; settings: 0.85 mg/kg daily s.c., after 30 days
Source text: The inventor used an androgen-independent xenograft model of human prostate tumor cells (CWR22R) to raise tumors in male and female nude mice. Tumors developed over a period of 2-3 weeks into palpable masses. 10 mice were randomly assigned to a treatment group and 10 mice were assigned to a control group. […] Mice in the control group received an injection of saline solution. After 30 days, tumors from surviving mice were surgically removed and visibly examined. Tumor size was reduced by 60% in mice from the treated group as compared to mice from the control group and female hosts.

For `O=C(c1ccc(OCCN2CCCCC2)cc1)c1c(-c2ccc(O)cc2)sc2cc(O)ccc12` [raloxifene], the “tumor stabilization (non-progression), leveling off of rising serum PSA” value ([1]; majority of patients treated) was “tumor stabilization occurred”, the “mean tumor volume vs control group (FIG. 1A)” value (MSKPC9 tumor xenografts) was “reduction in mean tumor volume; also recorded: tumors were smaller” and the “mean tumor weight vs control group (FIG. 1B)” value (MSKPC9 tumor xenografts) was “reduction in mean tumor weight”. The “PSA (per tumor volume) (FIG. 3)” value (PSA; MSKPC9 tumor xenografts, raloxifene treatment) was “increasing”, the “levels of PSA in the blood of implanted animals (FIG. 3)” value (PSA; MSKPC9 xenograft animals treated with raloxifene) was “rising PSA levels” and the “ER-β mRNA, difference between treatment groups” value (ER-β mRNA) was “no difference”. For the same molecule, the “improvement in soft tissue or bone disease” value ([2]; 60 mg oral daily) was “No improvement in soft tissue or bone disease was observed”, the “median time to disease progression” value ([2]; 60 mg oral daily) was 8.3 weeks and the “patients with progressive disease at the first evaluation time point” value ([2]; 60 mg oral daily) was “thirteen of the eighteen”. The “patients with stable disease at the first evaluation time point” value ([2]; 60 mg oral daily) was “five of eighteen”, the “time to disease progression, range” value ([2]; 60 mg oral daily) was 2.9-24.71 weeks and the “progression of soft tissue or osseous disease” value ([2]; 60 mg oral daily, first evaluation time point) was “No progression of soft tissue or osseous disease was observed”. The patients alive ([2]; as of July, 2003, 19 of 21) was 90%, the median survival ([2]; at time of analysis (November, 2002)) was 10.5 months and the “patients discontinued due to progressive disease (rising PSA) at the second evaluation point” value ([2]; of the five patients with stable disease) was “four”. For the same molecule, the “severity of most drug related toxicities reported” value ([3]; 60 mg oral daily) was “mild (grade 1-2)”, the tolerability ([3]; 60 mg oral daily, with low dose COUMADIN) was “well tolerated” and the “Patients experiencing drug-related toxicity: Anemia” value ([3]; Grade 1) was 2 patients. The “Patients experiencing drug-related toxicity: Arthralgia/Myalgia” value ([3]; Grade 1) was 2 patients, the “Patients experiencing drug-related toxicity: Bicarbonate” value ([3]; Grade 1) was 1 patients and the “Patients experiencing drug-related toxicity: Bone Pain” value ([3]; Grade 1) was 1 patients. The “Patients experiencing drug-related toxicity: Diarrhea” value ([3]; Grade 1) was 1 patients, the “Patients experiencing drug-related toxicity: Edema” value ([3]; Grade 1) was 1 patients and the “Patients experiencing drug-related toxicity: Fatigue/Malaise” value ([3]; Grade 1) was 1 patients. For the same molecule, the “Patients experiencing drug-related toxicity: Hematuria” value ([3]; Grade 1) was 1 patients, the “Patients experiencing drug-related toxicity: Hot flashes” value ([3]; Grade 1) was 2 patients and the “Patients experiencing drug-related toxicity: Hypercholesterolemia” value ([3]; Grade 1) was 2 patients. For the same molecule, the “Patients experiencing drug-related toxicity: Hyperglycemia” value ([3]; Grade 1) was 1 patients, the “Patients experiencing drug-related toxicity: Hypoalbuminemia” value ([3]; Grade 1) was 2 patients and the “Patients experiencing drug-related toxicity: Hypoglycemia” value ([3]; Grade 1) was 1 patients. For the same molecule, the “Patients experiencing drug-related toxicity: Increased Alkaline Phosphatase” value ([3]; Grade 1) was 3 patients, the “Patients experiencing drug-related toxicity: Increased Creatinine” value ([3]; Grade 1) was 1 patients and the “Patients experiencing drug-related toxicity: Increased SGOT (AST)” value ([3]; Grade 1) was 1 patients. The “Patients experiencing drug-related toxicity: Nausea/Vomiting” value ([3]; Grade 1) was 1 patients, the “Patients experiencing drug-related toxicity: Rash” value ([3]; Grade 1) was 1 patients and the “Patients experiencing drug-related toxicity: UTI” value ([3]; Grade 1) was 1 patients. For the same molecule, the “Patients experiencing drug-related toxicity: Anemia” value ([3]; Grade 2) was 1 patients, the “Patients experiencing drug-related toxicity: Bone Pain” value ([3]; Grade 2) was 1 patients and the “Patients experiencing drug-related toxicity: Constipation” value ([3]; Grade 2) was 2 patients. For the same molecule, the “Patients experiencing drug-related toxicity: Fatigue/Malaise” value ([3]; Grade 2) was 1 patients, the “Patients experiencing drug-related toxicity: Hypertriglyceridemia” value ([3]; Grade 2) was 1 patients and the “Patients experiencing drug-related toxicity: Hypotension” value ([3]; Grade 2) was 1 patients. The “Patients experiencing drug-related toxicity: Nausea/Vomiting” value ([3]; Grade 2) was 1 patients, the “Patients experiencing drug-related toxicity: Arthralgia/Myalgia” value ([3]; Grade 3) was 1 patients and the “Patients experiencing drug-related toxicity: Hyperglycemia” value ([3]; Grade 3) was 1 patients. The “Patients experiencing drug-related toxicity: Increased Creatinine” value ([3]; Grade 3) was 1 patients and the “tolerability in previous clinical studies” value [4] was “well tolerated”.
For `CC/C(=C(\c1ccccc1)c1ccc(OCCN(C)C)cc1)c1ccccc1` [tamoxifen], the “effect on androgen-independent prostate cancer” value [5] is given as “no effect”.
In the case of `O=C(c1ccc(OCCN2CCCCC2)cc1)c1c(-c2ccc(O)cc2)sc2cc(O)ccc12` [raloxifene HCl, Raloxifene hydrochloride], the “bone scan of the longest treated patient” value ([1]; 17 months since beginning therapy) is reported as “improvement in their bone scan”, the “continued PSA of the longest treated patient” value ([1]; 17 months since beginning therapy, 60 mg/day orally) is reported as under 0.4 ng/mL and the “decline of PSA levels” value ([1]; three patients, 60 mg orally once a day for a minimum of 30 days, continued LHRH-agonist therapy) is reported as over 50%. For the same molecule, the “reduction of tumor size vs control group” value [6] was 60%.

Reference: patent publication US7425565B2, “Use of benzothiopenes to treat and prevent prostate cancer” (Cedars-Sinai Medical Center, priority 2002, dated 2008)
